Experimental data published in patent publication US12077503B2, “Substituted cyclic amides and their use as herbicides” (FMC CORPORATION, priority 2015, dated 2024).

Columns and labels:
Format in all cases: in vivo
[1] = tested on: ragweed (common ragweed, Ambrosia elatior); test: Test A preemergence; conditions: Ambrosia artemisiifolia, pre-emergence, 240 h; for pest or weed control at 125 g/ha: 125 g ai/ha, preemergence, 0 to 100 scale where 0 is no effect and 100 is complete control, read-out: Ragweed plant response rating; for pest or weed control at 500 g/ha: 500 g ai/ha, Preemergence, visual injury vs untreated controls after approximately 10 d, read-out: Ragweed plant response rating (0 to 100 scale where 0 is no effect and 100 is complete control)
In short: (§1)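 Visual injury, scored on a 0–100 scale relative to untreated controls, was recorded about 10 d after application. Treatments were a preemergence soil spray over planted seeds or a postemergence spray on plants at the one- to two-leaf stage, 2 to 10 cm tall, all in loam soil–sand blend in the greenhouse.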

[2] = tested on: pigweed (Amaranthus retroflexus); test: Test A preemergence; conditions: Amaranthus retroflexus, pre-emergence, 240 h; for pest or weed control at 125 g/ha: 125 g ai/ha, preemergence, 0 to 100 scale where 0 is no effect and 100 is complete control, read-out: Pigweed plant response rating; for pest or weed control at 500 g/ha: 500 g ai/ha, Preemergence, visual injury vs untreated controls after approximately 10 d, read-out: Pigweed plant response rating (0 to 100 scale where 0 is no effect and 100 is complete control)
[3] = tested on: barnyardgrass (Echinochloa crus-galli); test: Test A preemergence; conditions: Echinochloa crus-galli, pre-emergence, 240 h; for pest or weed control at 125 g/ha: 125 g ai/ha, preemergence, 0 to 100 scale where 0 is no effect and 100 is complete control, read-out: Barnyardgrass plant response rating; for pest or weed control at 500 g/ha: 500 g ai/ha, Preemergence, visual injury vs untreated controls after approximately 10 d, read-out: Barnyardgrass plant response rating (0 to 100 scale where 0 is no effect and 100 is complete control)
In short: as §1

[4] = tested on: ryegrass, Italian (Italian ryegrass, Lolium multiflorum); test: Test A preemergence; conditions: Lolium multiflorum, pre-emergence, 240 h; for pest or weed control at 125 g/ha: 125 g ai/ha, preemergence, 0 to 100 scale where 0 is no effect and 100 is complete control, read-out: Ryegrass, Italian plant response rating; for pest or weed control at 500 g/ha: 500 g ai/ha, Preemergence, visual injury vs untreated controls after approximately 10 d, read-out: Ryegrass, Italian plant response rating (0 to 100 scale where 0 is no effect and 100 is complete control)
In short: as §1

Kochia (Kochia scoparia) = test: Test A preemergence; conditions: Bassia scoparia, pre-emergence, 240 h; for pest or weed control at 125 g/ha: 125 g ai/ha, preemergence, 0 to 100 scale where 0 is no effect and 100 is complete control, read-out: Kochia plant response rating; for pest or weed control at 500 g/ha: 500 g ai/ha, Preemergence, visual injury vs untreated controls after approximately 10 d, read-out: Kochia plant response rating (0 to 100 scale where 0 is no effect and 100 is complete control)
In short: as §1

[5] = tested on: giant foxtail (Setaria faberii); test: Test A preemergence; conditions: Setaria faberi, pre-emergence, 240 h; for pest or weed control at 125 g/ha: 125 g ai/ha, preemergence, 0 to 100 scale where 0 is no effect and 100 is complete control, read-out: Foxtail, Giant plant response rating; for pest or weed control at 500 g/ha: 500 g ai/ha, Preemergence, visual injury vs untreated controls after approximately 10 d, read-out: Foxtail, Giant plant response rating (0 to 100 scale where 0 is no effect and 100 is complete control)
In short: as §1

[6] = tested on: ducksalad (Heteranthera limosa); test: Test B flooded paddy test; conditions: Heteranthera limosa, Flood, 250 g ai/ha; scale of 0 to 100 where 0 is no effect and 100 is complete control; read-out: Ducksalad plant response rating
In short: (§2)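 Visual ratings (0 none to 100 complete control) are relative to untreated plants, taken 13–15 d after treatment in a greenhouse. Test material went straight into floodwater standing 3 cm above the soil, kept constant, on plants at the 2-leaf stage.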

[7] = tested on: barnyardgrass (Echinochloa crus-galli); test: Test B flooded paddy test; conditions: Echinochloa crus-galli, Flood, 250 g ai/ha; scale of 0 to 100 where 0 is no effect and 100 is complete control; read-out: Barnyardgrass plant response rating
In short: as §2

[8] = tested on: sedge, umbrella (small-flower umbrella sedge, Cyperus difformis); test: Test B flooded paddy test; conditions: Cyperus difformis, Flood, 250 g ai/ha; scale of 0 to 100 where 0 is no effect and 100 is complete control; read-out: Sedge, Umbrella plant response rating
In short: as §2

rice (Oryra sativa) = test: Test B flooded paddy test; conditions: Oryza sativa, Flood, 250 g ai/ha; scale of 0 to 100 where 0 is no effect and 100 is complete control; read-out: Rice plant response rating
In short: as §2

[9] = tested on: ragweed (common ragweed, Ambrosia elatior); test: Test A postemergence; conditions: Ambrosia artemisiifolia, post-emergence, 240 h, 125 g ai/ha, postemergence, visual injury rating after approximately 10 d; read-out: Ragweed plant response rating (0 to 100 scale, 0 no effect, 100 complete control)
In short: as §1

[10] = tested on: pigweed (Amaranthus retroflexus); test: Test A postemergence; conditions: Amaranthus retroflexus, post-emergence, 240 h, 125 g ai/ha, postemergence, visual injury rating after approximately 10 d; read-out: Pigweed plant response rating (0 to 100 scale, 0 no effect, 100 complete control)
In short: as §1

corn (Zea mays) = test: Test A postemergence; conditions: Zea mays, post-emergence, 240 h, 125 g ai/ha, postemergence, visual injury rating after approximately 10 d; read-out: Corn plant response rating (0 to 100 scale, 0 no effect, 100 complete control)
In short: as §1

[11] = tested on: blackgrass (Alopecurus myosuroides); test: Test A postemergence; conditions: Alopecurus myosuroides, post-emergence, 240 h, 125 g ai/ha, postemergence, visual injury rating after approximately 10 d; read-out: Blackgrass plant response rating (0 to 100 scale, 0 no effect, 100 complete control)
In short: as §1

[12] = tested on: ryegrass, Italian (Italian ryegrass, Lolium multiflorum); test: Test A postemergence; conditions: Lolium multiflorum, post-emergence, 240 h, 125 g ai/ha, postemergence, visual injury rating after approximately 10 d; read-out: Ryegrass, Italian plant response rating (0 to 100 scale, 0 no effect, 100 complete control)
In short: as §1

SMILES | pest or weed control at 125 g/ha [1] | pest or weed control at 500 g/ha [1] | pest or weed control at 125 g/ha [2] | pest or weed control at 500 g/ha [2] | pest or weed control at 125 g/ha [3] | pest or weed control at 500 g/ha [3] | pest or weed control at 125 g/ha [4] | pest or weed control at 500 g/ha [4] | pest or weed control at 125 g/ha (Kochia (Kochia scoparia)) | pest or weed control at 500 g/ha (Kochia (Kochia scoparia)) | pest or weed control at 125 g/ha [5] | pest or weed control at 500 g/ha [5] | pest or weed control at 250 g/ha [6] | pest or weed control at 250 g/ha [7] | pest or weed control at 250 g/ha [8] | pest or weed control at 250 g/ha (rice (Oryra sativa)) | pest or weed control at 125 g/ha [9] | pest or weed control at 125 g/ha [10] | plant injury at 125 g/ha (corn (Zea mays)) | pest or weed control at 125 g/ha [11] | other results
Cc1cc(C)cc([C@H]2CNC(=O)[C@@H]2C(=O)Nc2ccccc2C(F)(F)F)c1 [Compound 909] | 0% | 20% | 0% | 0% | 70% | 80% | 0% | 30% | 0% | 50% | 90% | 90% | 70% | 40% | 0% | 0% | 0% | 0% | 0% | 0% | pest or weed control at 125 g/ha [12]: 0%
CC(C)c1cccc([C@H]2CN(C)C(=O)[C@@H]2C(=O)Nc2ccccc2S(C)(=O)=O)c1 [Compound 820] | 20% | 60% | 40% | 70% | 90% | 100% | 60% | 80% | 70% | 80% | 90% | 100% | 75% | 60% | 0% | 0% | 20% | 20% | 30% | 40% | pest or weed control at 125 g/ha [12]: 30%
O=C1NC[C@H](c2ccc3c(c2)CCCO3)[C@H]1C(=O)Nc1ccccc1F [Compound 885] | 0% | 0% | 0% | 0% | 70% | 90% | 0% | 20% | 0% | 0% | 50% | 80% | 60% | 0% | 0% | 0% | 0% | 0% | 0% | 0% | pest or weed control at 125 g/ha [12]: 0%
